Our source for the TGI values is PubChem BioAssay (NCI).

Some test systems named below: MALME-3M melanoma; SN12C renal; HCC-2998 colon; UO-31 renal; MDA-N; SK-MEL-5 melanoma; UACC-257 melanoma; SF-268 CNS; SK-MEL-2 melanoma; HCT-116 colon.
What all share (assay): DTP human tumour cell line panel, 48 h

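The compound was tested at five concentrations on cells cultured in 96-well plates, with a 48-hour exposure period. At the TGI there is no net growth.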 A value given as a limit tells only on which side of the number the result lay.

For orientation: TGI means the concentration at which net growth stops. Read a low TGI as more potent growth arrest. With `COCCOCCOC1=CC(=O)c2c(O)ccc(O)c2C1=O`, the TGI worked out at 0.399 µM with MALME-3M melanoma; 3.8 µM in the test on SN12C renal; 3.51 µM in the test on HCC-2998 colon; 3.02 µM in the test with UO-31 renal; 0.289 µM with MDA-N; 0.329 µM in the test with SK-MEL-5 melanoma. Besides, the TGI with UACC-257 melanoma was determined as 1.43 µM; in the test with SF-268 CNS, 6.93 µM; with SK-MEL-2 melanoma, 3.47 µM; in the test on HCT-116 colon it was 1.05 µM.

Regarding `Oc1[nH]c2ccccc2c1N=NC(=S)Nc1ccc(Cl)cc1`, the TGI in the test on MALME-3M melanoma is 54.7 µM; in the test on SN12C renal, greater than 100 µM; with HCC-2998 colon, greater than 100 µM; in the test on UO-31 renal it was greater than 100 µM; in the test on MDA-N, greater than 100 µM; in the test with SK-MEL-5 melanoma it was 63.4 µM. Further, the TGI in the test with UACC-257 melanoma, in the test on SF-268 CNS, in the test on SK-MEL-2 melanoma and with HCT-116 colon was greater than 100 µM in each case.

As for `O=c1[nH]c(Nc2cccc(CO)c2)nc2nc[nH]c12`, the total growth inhibition concentration (TGI) in the test with MALME-3M melanoma, in the test on SN12C renal, in the test on HCC-2998 colon, in the test with UO-31 renal, in the test with MDA-N and in the test on SK-MEL-5 melanoma was greater than 100 µM in each case. Further, the TGI in the test on UACC-257 melanoma, with SF-268 CNS, with SK-MEL-2 melanoma and in the test on HCT-116 colon was greater than 100 µM each time.

On to `COc1cc2ccc1OCc1cccc(n1)COc1ccc(cc1OC)C=Nc1ccc(cc1)N=C2`, for which the TGI with MALME-3M melanoma, in the test on SN12C renal, in the test on HCC-2998 colon, with UO-31 renal, in the test on MDA-N and with SK-MEL-5 melanoma was greater than 100 µM each time. In addition, the TGI with UACC-257 melanoma, with SF-268 CNS, in the test with SK-MEL-2 melanoma and in the test with HCT-116 colon was greater than 100 µM each time.

For the molecule `NC(=O)N/N=C1\CC2C3CC4C2C4C13` (stereo not given), the TGI in the test with MALME-3M melanoma, in the test on SN12C renal, with HCC-2998 colon, with UO-31 renal, in the test with MDA-N and with SK-MEL-5 melanoma was greater than 100 µM in each case. Further, the TGI in the test on UACC-257 melanoma, in the test with SF-268 CNS, with SK-MEL-2 melanoma and with HCT-116 colon was greater than 100 µM throughout.

For `C#CCN(Cc1ccc2nc(OC)c(OC)nc2c1)c1cc(OC)c(OC)c(OC)c1`, the TGI was 83.8 µM in the test on MALME-3M melanoma; 57.2 µM in the test on SN12C renal; greater than 100 µM in the test with HCC-2998 colon; greater than 89.1 µM in the test on UO-31 renal; 45.5 µM in the test on MDA-N; 23.1 µM with SK-MEL-5 melanoma. Moreover, the TGI with UACC-257 melanoma was greater than 100 µM; in the test on SF-268 CNS, greater than 94.1 µM; with SK-MEL-2 melanoma, greater than 87.8 µM; with HCT-116 colon, greater than 68.8 µM.

Turning to `CC(=O)O[C@H]1CCc2c(cc(N)c3c2C(=O)C[C@]2(C)C([C@H](C)CCCC(C)C)CCC32C)C1(C)C` (stereo not given in full), the TGI in the test on MALME-3M melanoma, with SN12C renal, in the test on HCC-2998 colon, with UO-31 renal, with MDA-N and in the test with SK-MEL-5 melanoma was greater than 100 µM each time. In addition, the TGI in the test on UACC-257 melanoma, with SF-268 CNS, in the test with SK-MEL-2 melanoma and in the test with HCT-116 colon was greater than 100 µM in each case.

`O=C(c1ccncc1)C1C(=O)c2ccccc2C1C1(O)c2ccccc2CC1C(O)c1ccncc1` (stereo not given): the TGI was greater than 100 µM in the test on MALME-3M melanoma; greater than 100 µM in the test on SN12C renal; greater than 100 µM in the test on HCC-2998 colon; 29 µM in the test on UO-31 renal; 38.9 µM in the test with MDA-N; greater than 100 µM in the test with SK-MEL-5 melanoma. Besides, the TGI with UACC-257 melanoma was greater than 100 µM; in the test on SF-268 CNS, greater than 100 µM; in the test on SK-MEL-2 melanoma, 57.3 µM; with HCT-116 colon it was greater than 100 µM.

Take `CC(=O)OC1CCC2C3CCc4c(C)ccc(OS(=O)(=O)c5ccccc5)c4C3CCC12C` (stereo not given): the TGI with MALME-3M melanoma was greater than 100 µM; in the test on SN12C renal it was greater than 100 µM; in the test with HCC-2998 colon, greater than 100 µM; in the test on UO-31 renal it was 50.1 µM; in the test with MDA-N, greater than 100 µM; in the test with SK-MEL-5 melanoma, 23.1 µM. The TGI in the test with UACC-257 melanoma is greater than 100 µM; with SF-268 CNS, greater than 100 µM; with SK-MEL-2 melanoma, greater than 100 µM; in the test with HCT-116 colon, 48.3 µM.

On to `CC(C(=O)O)C(C)(O)C(=O)O` (stereo not given), for which the TGI with MALME-3M melanoma, in the test with SN12C renal, in the test on HCC-2998 colon, in the test on UO-31 renal, in the test on MDA-N and in the test on SK-MEL-5 melanoma was greater than 100 µM each time. The TGI in the test with UACC-257 melanoma, in the test on SF-268 CNS, in the test with SK-MEL-2 melanoma and in the test with HCT-116 colon was greater than 100 µM each time.

On to `Cn1c2ccccc2c(=O)c2c(O)cc3c(c21)C=CC1(CCCCC1)O3`, for which the TGI in the test on MALME-3M melanoma, in the test on SN12C renal, with HCC-2998 colon, in the test on UO-31 renal, in the test on MDA-N and in the test with SK-MEL-5 melanoma was greater than 10 µM each time. Further, the TGI with UACC-257 melanoma, with SF-268 CNS, in the test on SK-MEL-2 melanoma and in the test on HCT-116 colon was greater than 10 µM throughout.
